Where “and” joins values, the source holds several entries; their conditions need not be identical. Identical values can stand only once. Inconclusive results and toxic doses are left out.
System: P1534 leukemia ip, CD2F1 mice, survival T/C
Assay: NCI In Vivo Anticancer Drug Screen. Data for tumor model P1534 Leukemia (intraperitoneal) in CD2F1 (CDF1) mice
Conditions: endpoint: mean survival time, higher = longer survival
Procedure: The antitumor activity of compounds was measured in mice bearing transplantable tumors. Survival or tumor size were measured and the results are expressed as the measurement made in the treated group (T) divided by the measurement made in the vehicle treated control group (C). The tumor model used in this assay is P1534 Leukemia (intraperitoneal) in CD2F1 (CDF1) mice

[1] = dose: 20.0 mg/kg/injection, schedule: Q01DX010 (ip), vehicle: saline
[2] = dose: 40.0 mg/kg/injection, schedule: Q01DX010 (ip), vehicle: saline
[3] = dose: 50.0 mg/kg/injection, schedule: Q01DX010 (ip), vehicle: saline
[4] = dose: 100.0 mg/kg/injection, schedule: Q01DX010 (ip), vehicle: saline
[5] = dose: 200.0 mg/kg/injection, schedule: Q01DX010 (ip), vehicle: water

**Q.** Which results are given for `CN1CCN(CCCN2c3ccccc3Sc3ccc(C(F)(F)F)cc32)CC1`?
**A.** T/C [1]: 107 % of control; T/C [2]: 115 % of control

**Q.** Which T/C [3] does the source give for `O=C1C(=O)N(CN2CCOCC2)c2ccccc21` here?
**A.** 100 % of control

**Q.** What about the T/C [4] of the same compound?
**A.** 100 % of control

**Q.** What about the T/C (dose: 200.0 mg/kg/injection, schedule: Q01DX010 (ip), vehicle: saline) of the same compound?
**A.** 96 % of control

**Q.** What about the T/C (dose: 400.0 mg/kg/injection, schedule: Q01DX010 (ip), vehicle: saline) of the same compound?
**A.** 103 % of control

**Q.** How did the T/C (dose: 8.0 mg/kg/injection, schedule: Q01DX010 (ip), vehicle: saline) turn out when `O=C(Nc1ccc(C2=NCCN2)cc1)c1ccc(C(=O)Nc2ccc(C3=NCCN3)cc2)cc1` was run?
**A.** 104 % of control

**Q.** What about the T/C (dose: 16.0 mg/kg/injection, schedule: Q01DX010 (ip), vehicle: saline) of the same compound?
**A.** 100 % of control

**Q.** What about the T/C (dose: 32.0 mg/kg/injection, schedule: Q01DX010 (ip), vehicle: saline) of the same compound?
**A.** 104 % of control and 100 % of control

**Q.** And the T/C (dose: 64.0 mg/kg/injection, schedule: Q01DX010 (ip), vehicle: saline)?
**A.** 104 % of control and 100 % of control

**Q.** Which results are given for `OCCOCCN1CCN(CCCN2c3ccccc3Sc3ccc(C(F)(F)F)cc32)CC1`?
**A.** T/C (dose: 5.0 mg/kg/injection, schedule: Q01DX010 (ip), vehicle: saline): 100 % of control; T/C (dose: 10.0 mg/kg/injection, schedule: Q01DX010 (ip), vehicle: saline): 111 % of control; T/C [1]: 123 % of control; T/C [2]: 119 % of control

**Q.** Which results are given for `C/C=C1\CN2C3C[C@H]1C(C(=O)OC)[C@H]2Cc1c3[nH]c2ccccc12` (stereo partly specified)?
**A.** T/C (dose: 7.5 mg/kg/injection, schedule: Q01DX010 (ip), vehicle: saline): 100 % of control; T/C (dose: 15.0 mg/kg/injection, schedule: Q01DX010 (ip), vehicle: saline): 93 % of control; T/C (dose: 30.0 mg/kg/injection, schedule: Q01DX010 (ip), vehicle: saline): 93 % of control

**Q.** Which results are given for `O=C(NO)c1ccncc1`?
**A.** T/C [5]: 101 % of control; T/C (dose: 200.0 mg/kg/injection, schedule: Q02DX005 (ip), vehicle: water): 106 % of control; T/C (dose: 300.0 mg/kg/injection, schedule: Q01DX010 (ip), vehicle: water): 108 % of control; T/C (dose: 300.0 mg/kg/injection, schedule: Q02DX005 (ip), vehicle: water): 99 % of control; T/C (dose: 335.0 mg/kg/injection, schedule: Q01DX010 (ip), vehicle: water): 106 % of control; T/C (dose: 400.0 mg/kg/injection, schedule: Q01DX010 (ip), vehicle: water): 106 % of control; T/C (dose: 400.0 mg/kg/injection, schedule: Q02DX005 (ip), vehicle: water): 110 % of control; T/C (dose: 500.0 mg/kg/injection, schedule: Q01DX010 (ip), vehicle: water): 103 % of control; T/C (dose: 600.0 mg/kg/injection, schedule: Q01DX010 (ip), vehicle: water): 111 % of control; T/C (dose: 600.0 mg/kg/injection, schedule: Q02DX005 (ip), vehicle: water): 106 % of control; T/C (dose: 800.0 mg/kg/injection, schedule: Q02DX005 (ip), vehicle: water): 109 % of control

**Q.** With `OCn1cccn1` as the compound, how does the T/C (dose: 100.0 mg/kg/injection, schedule: Q01DX010 (ip), vehicle: water) read?
**A.** 124 % of control

**Q.** What about the T/C (dose: 125.0 mg/kg/injection, schedule: Q01DX010 (ip), vehicle: water) of the same compound?
**A.** 121 % of control

**Q.** What about the T/C (dose: 150.0 mg/kg/injection, schedule: Q01DX010 (ip), vehicle: water) of the same compound?
**A.** 118 % of control

**Q.** And the T/C [5]?
**A.** 86 % of control

**Q.** Which results are given for `CCC(CCC(C)C1CCC2C3CC=C4CC(O)CCC4(C)C3CCC12C)C(C)C` (stereo unspecified) (tested in a mixture with another compound)?
**A.** T/C (dose: 12.0 mg/kg/injection, schedule: Q01DX010 (ip), vehicle: water): 102 % of control; T/C (dose: 25.0 mg/kg/injection, schedule: Q01DX010 (ip), vehicle: water): 109 % of control; T/C (dose: 25.0 mg/kg/injection, schedule: Q#A X020 (ip), vehicle: other): 87 % of control; T/C (dose: 50.0 mg/kg/injection, schedule: Q01DX010 (ip), vehicle: water): 93 % of control

**Q.** Which results are given for `CC[C@]1(O)C[C@H]2CN(CCc3c([nH]c4ccccc34)[C@@](C(=O)OC)(c3cc4c(cc3OC)N(C=O)[C@H]3[C@@](O)(C(=O)OC)[C@H](OC(C)=O)[C@]5(CC)C=CCN6CC[C@]43[C@@H]65)C2)C1`?
**A.** T/C (dose: 0.02 mg/kg/injection, schedule: Q01DX010 (ip), vehicle: saline): 97 % of control; T/C (dose: 0.03 mg/kg/injection, schedule: Q01DX010 (ip), vehicle: saline): 86 % of control; T/C (dose: 0.05 mg/kg/injection, schedule: Q01DX010 (ip), vehicle: water): 100 % of control; T/C (dose: 0.1 mg/kg/injection, schedule: Q01DX010 (ip), vehicle: water): 156 % of control; T/C (dose: 0.13 mg/kg/injection, schedule: Q02DX008 (ip), vehicle: saline): 160 % of control and 259 % of control and 306 % of control; T/C (dose: 0.15 mg/kg/injection, schedule: Q## X004 (ip), vehicle: saline): 119 % of control and 181 % of control and 234 % of control; T/C (dose: 0.16 mg/kg/injection, schedule: Q## X032 (ip), vehicle: saline): 208 % of control; T/C (dose: 0.2 mg/kg/injection, schedule: Q01DX010 (ip), vehicle: water): 305 % of control; T/C (dose: 0.2 mg/kg/injection, schedule: Q02DX008 (ip), vehicle: saline): 221 % of control and 270 % of control and 290 % of control; T/C (dose: 0.22 mg/kg/injection, schedule: Q## X004 (ip), vehicle: saline): 231 % of control and 242 % of control and 270 % of control; T/C (dose: 0.24 mg/kg/injection, schedule: Q## X032 (ip), vehicle: saline): 187 % of control and 193 % of control and 212 % of control; T/C (dose: 0.3 mg/kg/injection, schedule: Q02DX008 (ip), vehicle: saline): 298 % of control and 302 % of control and 352 % of control; T/C (dose: 0.35 mg/kg/injection, schedule: Q## X004 (ip), vehicle: saline): 256 % of control and 273 % of control and 304 % of control; T/C (dose: 0.36 mg/kg/injection, schedule: Q## X032 (ip), vehicle: saline): 234 % of control and 241 % of control and 282 % of control; T/C (dose: 0.44 mg/kg/injection, schedule: Q02DX008 (ip), vehicle: saline): 154 % of control and 197 % of control and 358 % of control; T/C (dose: 0.53 mg/kg/injection, schedule: Q## X004 (ip), vehicle: saline): 270 % of control and 344 % of control and 366 % of control; T/C (dose: 0.54 mg/kg/injection, schedule: Q## X032 (ip), vehicle: saline): 274 % of control and 275 % of control and 335 % of control; T/C (dose: 0.8 mg/kg/injection, schedule: Q## X004 (ip), vehicle: saline): 283 % of control and 357 % of control; T/C (dose: 0.8 mg/kg/injection, schedule: Q## X032 (ip), vehicle: saline): 190 % of control and 218 % of control and 92 % of control; T/C (dose: 1.2 mg/kg/injection, schedule: Q## X004 (ip), vehicle: saline): 152 % of control; T/C (dose: 1.2 mg/kg/injection, schedule: Q## X032 (ip), vehicle: saline): 92 % of control; T/C (dose: 1.45 mg/kg/injection, schedule: Q01DX001 (ip), vehicle: saline): 188 % of control and 237 % of control; T/C (dose: 1.45 mg/kg/injection, schedule: Q## X001 (ip), vehicle: saline): 294 % of control; T/C (dose: 1.5 mg/kg/injection, schedule: Q01DX001 (ip), vehicle: saline): 159 % of control and 188 % of control and 212 % of control; T/C (dose: 1.8 mg/kg/injection, schedule: Q## X004 (ip), vehicle: saline): 100 % of control; T/C (dose: 2.9 mg/kg/injection, schedule: Q01DX001 (ip), vehicle: saline): 158 % of control; T/C (dose: 2.9 mg/kg/injection, schedule: Q## X001 (ip), vehicle: saline): 297 % of control; T/C (dose: 26.0 micrograms/kg/injection, schedule: Q01DX010 (ip), vehicle: saline): 123 % of control and 208 % of control; T/C (dose: 27.0 micrograms/kg/injection, schedule: Q01DX015 (ip), vehicle: saline): 167 % of control and 173 % of control; T/C (dose: 40.0 micrograms/kg/injection, schedule: Q01DX015 (ip), vehicle: saline): 161 % of control and 240 % of control; T/C (dose: 60.0 micrograms/kg/injection, schedule: Q01DX015 (ip), vehicle: saline): 221 % of control and 226 % of control; T/C (dose: 90.0 micrograms/kg/injection, schedule: Q01DX015 (ip), vehicle: saline): 215 % of control and 228 % of control and 260 % of control; T/C (dose: 135.0 micrograms/kg/injection, schedule: Q01DX015 (ip), vehicle: saline): 221 % of control and 281 % of control and 297 % of control; T/C (dose: 200.0 micrograms/kg/injection, schedule: Q01DX015 (ip), vehicle: saline): 196 % of control and 233 % of control and 340 % of control; T/C (dose: 300.0 micrograms/kg/injection, schedule: Q01DX010 (ip), vehicle: saline): 181 % of control and 240 % of control; T/C (dose: 300.0 micrograms/kg/injection, schedule: Q01DX015 (ip), vehicle: saline): 200 % of control

**Q.** How did the T/C (dose: 12.5 mg/kg/injection, schedule: Q01DX010 (ip), vehicle: saline) turn out when `C1CCNCC1` was run?
**A.** 96 % of control

**Q.** And the T/C (dose: 25.0 mg/kg/injection, schedule: Q01DX010 (ip), vehicle: saline)?
**A.** 100 % of control

**Q.** And the T/C [3]?
**A.** 100 % of control

**Q.** What about the T/C [4] of the same compound?
**A.** 96 % of control
